# According to patent EP1944294A1, “Gamma-polymorph of a substituted pyrazoline, its preparation and use as medicaments” (Laboratorios del Dr. Esteve S.A., priority 2007, dated 2008):
# Target: recombinant human cannabinoid 1 receptor (CB1) (Homo sapiens, UniProt P21554)
# Conditions: compound at 1 µM; 100 % = difference between maximal effect of WIN 55,212-2 alone and WIN 55,212-2 plus Rimonabant (1 µM)
# Description: Chinese hamster ovary (CHO) cells stably expressing recombinant human cannabinoid 1 receptor (CB1) are cultured in nutrient mixture Ham's F 12 supplemented with 10 % heat-inactivated fetal bovine serum, 2 mM L-glutamine, 50 U/ml penicillin, 50 U/ml streptomycin and 0.5 mg/ml geneticin. In order to obtain cells, culture flasks are washed twice with phosphate buffered saline and scraped. Then, cells are collected by centrifugation (200 x g, 10 min) and stored dry at -80°C. Cells are homogenized in ice-cold 20 mM HEPES, 10 mM EDTA (pH 7.5) and centrifuged at 40,000 x g for 15 min at 4°C. The membrane pellet is resuspended in 20 mM HEPES, 0.1 1 mM EDTA (pH 7.5) and centrifuged for 15 min at 4°C. The final membrane pellet is resuspended in 20 mM HEPES, 0.1 1 mM EDTA (pH 7.5), and divided in aliquots and stored at -80°C until use.
# The reaction is performed in 96-well plates. Membranes (15 µg protein/well) are incubated for 60 min at 30 °C in buffer (50 mM HEPES, 100 mM KCI, 5 mM MgCl2,1 mM EDTA, 0.1 % wt/vol bovine serum albumin, 5 µM GDP, saponin (10 µg/ml), 0.5 nM [^35S]GTPγS, pH 7.4) with compound at a final concentration of 1 µM in either the absence or presence of agonist WIN 55,212-2 between 3 nM and 3 µM. […] Radioactivity is determined using a Wallac Microbeta Trilux. […]
# Chain of recombinant human cannabinoid 1 receptor (CB1) (P21554 whole entry): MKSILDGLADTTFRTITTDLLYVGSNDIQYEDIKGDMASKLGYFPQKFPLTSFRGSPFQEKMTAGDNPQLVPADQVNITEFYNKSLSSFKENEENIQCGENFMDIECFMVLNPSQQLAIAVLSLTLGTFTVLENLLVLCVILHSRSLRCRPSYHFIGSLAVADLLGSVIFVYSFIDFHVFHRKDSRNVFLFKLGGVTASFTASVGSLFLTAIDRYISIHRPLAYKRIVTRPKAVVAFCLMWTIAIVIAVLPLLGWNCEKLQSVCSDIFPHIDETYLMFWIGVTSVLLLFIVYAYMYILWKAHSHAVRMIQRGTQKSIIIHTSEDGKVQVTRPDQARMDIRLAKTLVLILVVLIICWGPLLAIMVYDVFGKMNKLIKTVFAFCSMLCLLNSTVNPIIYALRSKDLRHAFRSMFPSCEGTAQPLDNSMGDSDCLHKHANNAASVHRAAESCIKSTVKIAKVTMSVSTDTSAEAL
compound,measurement,value
"O=C(NN1CCCCC1)C1=NN(c2ccc(Cl)cc2Cl)[C@@H](c2ccc(Cl)cc2)C1 [Compound A, (R)-N-piperidinyl-5-(4-chlorophenyl)-1-(2,4-dichlorophenyl)-4,5-dihydro-1H-pyrazole-3-carboxamide]",Antagonism,106%
